A value given as a limit tells only on which side of the number the result lay.

As usually defined, the melting point is the temperature of the solid-liquid transition.

One data set deals with Aedes aegypti. Kind of data set: Aedes aegypti (Yellow fever mosquito) larvae test. The class given is in vivo. The conditions noted are these: 48 h.
Data set [1] has as its system Erysiphe graminis f.sp. tritici. Put plainly: Erysiphe graminis f.sp. tritici (wheat powdery mildew) leaf disk assay. It counts as in vivo. The conditions noted are these: Blumeria graminis, foliar, 96 h, preventive, four days after inoculation, read-out: control of fungal infection, Erysiphe graminis fsp. tritici.
Data set [2] deals with Puccinia recondita f.sp. tritici. Kind of data set: Puccinia recondita f.sp. tritici (wheat brown rust) leaf disk assay. The class given is in vivo. The following applies: foliar, 216 h, preventive, nine days after inoculation, read-out: control of fungal infection, Puccinia recondita f.sp. tritici.
The next data set has as its system Phytophthora infestans. Put plainly: whole plant or invertebrate. The class given is in vivo. The following applies: foliar, 96 h, read-out: control of fungal infection, Phytophthora infestans.
The test system of another data set is Plasmopara viticola. Put plainly: Plasmopara viticola (downy mildew of grapevine) leaf disk assay. It counts as in vivo. The following applies: foliar, 168 h, preventive, seven days after inoculation, read-out: control of fungal infection, Plasmopara viticola.
The next data set has as its system Plutella xylostella. Kind of data set: Plutella xylostella (Diamond back moth) artificial diet test. The following applies: 120 h, read-out: control of Plutella xylostella.
A further data set relates to Pyricularia oryzae. Kind of data set: whole plant or invertebrate. The conditions noted are these: foliar, 96 h, read-out: control of fungal infection, Pyricularia oryzae (at least 60% list). It counts as in vivo.

For `O=C(O)CC1CC2CCC(C1)N2c1ncnc2sccc12` (stereo not drawn), the melting point is 181 °C.

Regarding `O=C(NC1C[C@H]2CC[C@@H](C1)N2c1ncnc2sccc12)c1cccnc1` (stereo partly drawn), the melting point stood at 170 °C.

On to `Cc1csc2c(N3[C@@H]4CC[C@H]3CC(Oc3cc(C(F)(F)F)ccn3)C4)ncnc12` (stereo partly drawn), for which the melting point is 76 °C.

As for `Clc1ccc(-c2nc(CON=C3CC4CCC(C3)N4c3ncnc4sccc34)cs2)cc1` [Example 5.255], the pest or weed control at 2 ppm with Aedes aegypti was ≥ 80%. Moreover, the pest or weed control at 200 ppm (in data set [1]; in data set [2]; with Phytophthora infestans; with Plasmopara viticola) was ≥ 80% throughout.

Take `CS(=O)(=O)OC1C[C@H]2CC[C@@H](C1)N2c1ncnc2sccc12` (stereo partly drawn) [Example 2.10]: the melting point came to 135 °C. Moreover, in data set [1], the pest or weed control at 200 ppm is ≥ 80%.

In turn, `Cc1nsc(N2[C@@H]3CC[C@H]2CC(Oc2ccc(C(F)(F)F)cn2)C3)c1Cl` (stereo partly drawn) [Example 2.199] showed a melting point of 46 °C. In data set [1], the pest or weed control at 200 ppm was ≥ 80%.

For the molecule `CCc1ncnc(N2C3CCC2CC(=CC(=O)O)C3)c1Cl`, the melting point worked out at 162 °C.

For the molecule `N#Cc1sc(N2[C@@H]3CC[C@H]2CC(Oc2cccc(C(F)(F)F)n2)C3)nc1C(F)(F)F` (stereo partly drawn), the melting point is 147 °C.

In turn, `N#Cc1sc(N2[C@@H]3CC[C@H]2CC(Oc2ccc(C(F)(F)F)cn2)C3)nc1C(F)(F)F` (stereo partly drawn) displayed a melting point of 135 °C.

`CC(=O)NC1C[C@H]2CC[C@@H](C1)N2c1ncnc2sccc12` (stereo partly drawn) registered a melting point of 196 °C.

The molecule `O=C1c2ccccc2C(=O)N1OC1C[C@H]2CC[C@@H](C1)N2c1ncnc2sccc12` (stereo partly drawn) [1.73] showed a melting point of 243 °C.

For the molecule `CCc1ccc(CON=C2CC3CCC(C2)N3c2ncnc(CC)c2Cl)cc1` [Example 5.17], the pest or weed control at 2 ppm in the data set on Aedes aegypti is ≥ 80%. Further, the pest or weed control at 200 ppm (in data set [1]; in data set [2]; in the data set on Phytophthora infestans; in the data set with Plasmopara viticola; in the data set on Plutella xylostella) was ≥ 80% throughout.

Consider `N#Cc1sc(N2[C@@H]3CC[C@H]2CC(Oc2cc(C(F)(F)F)ccn2)C3)nc1C(F)(F)F` (stereo partly drawn), for which the melting point was determined as 129 °C.

Take `Clc1ccccc1CON=C1CC2CCC(C1)N2c1ncnc2sccc12` [Example 5.141]: the pest or weed control at 2 ppm with Aedes aegypti was ≥ 80%. The pest or weed control at 200 ppm is ≥ 80% in data set [1]; ≥ 80% in data set [2]; ≥ 60% in the data set on Pyricularia oryzae; ≥ 80% in the data set on Phytophthora infestans; ≥ 80% in the data set on Plasmopara viticola; ≥ 80% with Plutella xylostella.

As for `Cc1ccccc1CON=C1CC2CCC(C1)N2c1ncnc2sccc12` [Example 5.155], the pest or weed control at 2 ppm in the data set with Aedes aegypti was ≥ 80%. For the same molecule, the pest or weed control at 200 ppm in data set [1] was ≥ 80%; in data set [2], ≥ 80%; in the data set on Pyricularia oryzae, ≥ 60%; with Plasmopara viticola, ≥ 80%; with Plutella xylostella, ≥ 80%.

For the molecule `FC(F)(F)c1ccnc(OC2C[C@H]3CC[C@@H](C2)N3c2ncnc3ccsc23)c1` (stereo partly drawn), the melting point stood at 211 °C.

With `Cc1nn(C)c2nccc(N3[C@@H]4CC[C@H]3CC(Oc3ccc(Cl)cc3)C4)c12` (stereo partly drawn), the melting point worked out at 155 °C.

Consider `Clc1ccc(CON=C2CC3CCC(C2)N3c2ncnc3sccc23)cc1` [Example 5.142], for which the pest or weed control at 2 ppm in the data set with Aedes aegypti was ≥ 80%. In addition, the pest or weed control at 200 ppm is ≥ 80% in data set [1]; ≥ 80% in data set [2]; ≥ 60% with Pyricularia oryzae; ≥ 80% in the data set on Plasmopara viticola; ≥ 80% with Plutella xylostella.

`CCc1ncnc(N2[C@@H]3CC[C@H]2CC(ON)C3)c1Cl` (stereo partly drawn) displayed a melting point of 70 °C.

Consider `CCc1ncnc(N2[C@@H]3CC[C@H]2CC(O)C3)c1Cl` (stereo partly drawn), for which the melting point stood at 104 °C.

For the molecule `Cn1cc(C(=O)N2[C@@H]3CC[C@H]2CC(Oc2ccc(C(F)(F)F)cn2)C3)c(C(F)(F)F)c1` (stereo partly drawn) [2.218], the melting point turned out to be 147 °C.

In turn, `Cn1cc(C(=O)N2[C@@H]3CC[C@H]2CC(Oc2ccc(C(F)(F)F)cn2)C3)c(C(F)(F)F)c1` (stereo partly drawn) [2.223] showed a melting point of 153 °C.

On to `Cc1noc2ncnc(N3[C@@H]4CC[C@H]3CC(Oc3cc(C(F)(F)F)ccn3)C4)c12` (stereo partly drawn), for which the melting point is 192 °C.

In turn, `CCc1ncnc(N2C3CCC2CC(CC(N)=O)C3)c1Cl` (stereo not drawn) had a melting point of 101 °C.

Take `Cc1nn(C)c2nccc(N3C4CCC3CC(=NO)C4)c12`: the melting point turned out to be 201 °C.

As to `CC1(C)COC2(CC3CCC(C2)N3c2ncnc3sccc23)O1` (stereo not drawn) [Example 6.2], the pest or weed control at 200 ppm (in data set [1]; in data set [2]; in the data set with Phytophthora infestans; with Plasmopara viticola) was ≥ 80% in each case.

Turning to `Fc1ccc(C(F)(F)F)cc1CON=C1CC2CCC(C1)N2c1ncnc2sccc12` [Example 5.238], the pest or weed control at 2 ppm in the data set with Aedes aegypti was ≥ 80%. Moreover, the pest or weed control at 200 ppm is ≥ 80% in data set [1]; ≥ 80% in data set [2]; ≥ 60% with Pyricularia oryzae; ≥ 80% in the data set with Plasmopara viticola; ≥ 80% in the data set with Plutella xylostella.

Take `COc1cc(C(C)=O)ccc1OC1C[C@H]2CC[C@@H](C1)N2c1ncnc2sccc12` (stereo partly drawn): the melting point worked out at 171 °C.

Turning to `CCc1ncnc(N2C3CCC2CC(=NOCc2ccc(Br)cc2)C3)c1Cl` [Example 5.19], the pest or weed control at 200 ppm (in data set [1]; in data set [2]; with Phytophthora infestans; in the data set on Plasmopara viticola; with Plutella xylostella) was ≥ 80% throughout.

`FC(F)(F)c1ccc(OC2C[C@H]3CC[C@@H](C2)N3c2ccnc3cc(Cl)ccc23)nc1` (stereo partly drawn) registered a melting point of 107 °C.

In turn, `Cc1noc2ncnc(N3[C@@H]4CC[C@H]3CC(Oc3ccc(C(F)(F)F)cn3)C4)c12` (stereo partly drawn) had a melting point of 238 °C.

The molecule `N#Cc1c(Cl)nsc1N1[C@@H]2CC[C@H]1CC(Oc1cccc(C(F)(F)F)n1)C2` (stereo partly drawn) yielded a melting point of 158 °C.

With `Clc1ccc(OC2C[C@H]3CC[C@@H](C2)N3c2ncnc3sccc23)cc1` (stereo partly drawn), the melting point was 184 °C.

On to `Cc1cccc(CON=C2CC3CCC(C2)N3c2ncnc3sccc23)c1` [Example 5.157], for which the pest or weed control at 200 ppm in data set [1] was ≥ 80%; in data set [2], ≥ 80%; in the data set on Pyricularia oryzae it was ≥ 60%; in the data set with Phytophthora infestans, ≥ 80%; in the data set with Plasmopara viticola, ≥ 80%.

For the molecule `CCc1ncnc(N2C3CCC2CC(=NO)C3)c1Cl`, the melting point amounted to 73 °C.

`CCc1ncnc(N2C3CCC2CC(CC(N)=S)C3)c1Cl` (stereo not drawn): the melting point is 160 °C.

Take `Cn1cc(C(=O)N2[C@@H]3CC[C@H]2CC(Oc2cc(C(F)(F)F)ccn2)C3)c(C(F)(F)F)c1` (stereo partly drawn): the melting point is 183 °C.

As to `Cc1nc(OC2C[C@H]3CC[C@@H](C2)N3c2ncnc3sccc23)cc(N(C)C)n1` (stereo partly drawn) [Example 1.53], the pest or weed control at 200 ppm in the data set with Phytophthora infestans and in the data set with Plasmopara viticola was ≥ 80% in each case.

With `N#Cc1c(Cl)nsc1N1[C@@H]2CC[C@H]1CC(Oc1ccc(C(F)(F)F)cn1)C2` (stereo partly drawn), the melting point was determined as 157 °C.

`CCc1ncnc(N2C3CCC2CC(CC(=O)O)C3)c1Cl` (stereo not drawn) came in with a melting point of 109 °C.

These data come from US20100331348A1, “TROPANE DERIVATIVES USEFUL AS PESTICIDES” (SYNGENTA CROP PROTECTION, INC., priority 2007, published 2010).
